Patent US5288720A, “Angiotensin II receptor blocking 2,3,6 substituted quinazolinones” (American Cyanamid Company, priority 1993, dated 1994)

Test system: ANGIOTENSIN II VASOPRESSOR RESPONSE
Assay: AII Challenge: blockade of angiotensin II vasopressor response in conscious SHR
Assay type: in vivo, rat (Conscious Male Okamoto-Aoki SHR)
Conditions: SHR n=2
Summary of the method: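 Conscious male Okamoto-Aoki SHR (16-20 weeks, ~330 g) cannulated in aorta and vena cava under local procaine; angiotensin II (human) 0.05 and 0.1 ug/kg i.v. given before and at 30-300 min after test compound i.v., i.p. or orally. Rise in systolic pressure (mmHg) expressed as % blockade versus each rat's predose response.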

[1] = 3 mg/kg i.v., AII 0.05 mcg/kg IV, 30 min post dose
[2] = 3 mg/kg i.v., AII 0.05 mcg/kg IV, 60 min post dose
[3] = 3 mg/kg i.v., AII 0.05 mcg/kg IV, 90 min post dose
[4] = 3 mg/kg i.v., AII 0.05 mcg/kg IV, 120 min post dose
[5] = 3 mg/kg i.v., AII 0.05 mcg/kg IV, 180 min post dose
[6] = 3 mg/kg i.v., AII 0.05 mcg/kg IV, 240 min post dose
[7] = 3 mg/kg i.v., AII 0.05 mcg/kg IV, 300 min post dose
[8] = 3 mg/kg i.v., AII 0.1 mcg/kg IV, 30 min post dose
[9] = 3 mg/kg i.v., AII 0.1 mcg/kg IV, 60 min post dose
[10] = 3 mg/kg i.v., AII 0.1 mcg/kg IV, 90 min post dose
[11] = 3 mg/kg i.v., AII 0.1 mcg/kg IV, 120 min post dose
[12] = 3 mg/kg i.v., AII 0.1 mcg/kg IV, 180 min post dose
[13] = 3 mg/kg i.v., AII 0.1 mcg/kg IV, 240 min post dose
[14] = 3 mg/kg i.v., AII 0.1 mcg/kg IV, 300 min post dose
[15] = 3 mg/kg p.o., AII 0.05 mcg/kg IV, 30 min post dose
[16] = 3 mg/kg p.o., AII 0.05 mcg/kg IV, 60 min post dose
[17] = 3 mg/kg p.o., AII 0.05 mcg/kg IV, 90 min post dose
[18] = 3 mg/kg p.o., AII 0.05 mcg/kg IV, 120 min post dose
[19] = 3 mg/kg p.o., AII 0.05 mcg/kg IV, 180 min post dose
[20] = 3 mg/kg p.o., AII 0.05 mcg/kg IV, 240 min post dose
[21] = 3 mg/kg p.o., AII 0.1 mcg/kg IV, 30 min post dose
[22] = 3 mg/kg p.o., AII 0.1 mcg/kg IV, 60 min post dose
[23] = 3 mg/kg p.o., AII 0.1 mcg/kg IV, 90 min post dose
[24] = 3 mg/kg p.o., AII 0.1 mcg/kg IV, 120 min post dose
[25] = 3 mg/kg p.o., AII 0.1 mcg/kg IV, 180 min post dose
[26] = 3 mg/kg p.o., AII 0.1 mcg/kg IV, 240 min post dose

SMILES: CCCCc1nc2ccc(C(O)C3CCN(C)C3=O)cc2c(=O)n1Cc1ccc(-c2ccccc2-c2nn[nH]n2)cc1 (single isomer, unassigned; isomer 2) [Example 33, 2-Butyl-6-[hydroxy(1-methyl-2-oxo-3-pyrrolidinyl)methyl-3-[[2'-(1H-tetrazol-5-yl)[1,1'-biphenyl]-4-yl]methyl]-4(3H)-quinazolinone isomer 2]
- % Inhibition of AII vasopressor response [1]: 100%
- Average Change (systolic blood pressure response to AII) [1]: 0 mmHg
- % Inhibition of AII vasopressor response [2]: 100%
- Average Change (systolic blood pressure response to AII) [2]: 0 mmHg
- % Inhibition of AII vasopressor response [3]: 100%
- Average Change (systolic blood pressure response to AII) [3]: 0 mmHg
- % Inhibition of AII vasopressor response [4]: 100%
- Average Change (systolic blood pressure response to AII) [4]: 0 mmHg
- % Inhibition of AII vasopressor response [5]: 81%
- Average Change (systolic blood pressure response to AII) [5]: 7.5 mmHg
- % Inhibition of AII vasopressor response [6]: 56%
- Average Change (systolic blood pressure response to AII) [6]: 17.5 mmHg
- % Inhibition of AII vasopressor response [7]: 44%
- Average Change (systolic blood pressure response to AII) [7]: 22.5 mmHg
- % Inhibition of AII vasopressor response [8]: 86%
- Average Change (systolic blood pressure response to AII) [8]: 7.5 mmHg
- % Inhibition of AII vasopressor response [9]: 89%
- Average Change (systolic blood pressure response to AII) [9]: 6 mmHg
- Average Change (systolic blood pressure response to AII) [10]: 7.5 mmHg
- % Inhibition of AII vasopressor response [11]: 81%
- Average Change (systolic blood pressure response to AII) [11]: 10 mmHg
- % Inhibition of AII vasopressor response [12]: 52%
- Average Change (systolic blood pressure response to AII) [12]: 25 mmHg
- % Inhibition of AII vasopressor response [13]: 33%
- Average Change (systolic blood pressure response to AII) [13]: 35 mmHg
- % Inhibition of AII vasopressor response [14]: 38%
- Average Change (systolic blood pressure response to AII) [14]: 32.5 mmHg
- % Inhibition of AII vasopressor response [15]: 80%
- Average Change (systolic blood pressure response to AII) [15]: 10 mmHg
- % Inhibition of AII vasopressor response [16]: 65%
- Average Change (systolic blood pressure response to AII) [16]: 17.5 mmHg
- % Inhibition of AII vasopressor response [17]: 50%
- Average Change (systolic blood pressure response to AII) [17]: 25 mmHg
- % Inhibition of AII vasopressor response [18]: 63%
- Average Change (systolic blood pressure response to AII) [18]: 18.5 mmHg
- % Inhibition of AII vasopressor response [19]: 35%
- Average Change (systolic blood pressure response to AII) [19]: 32.5 mmHg
- % Inhibition of AII vasopressor response [20]: 30%
- Average Change (systolic blood pressure response to AII) [20]: 35 mmHg
- % Inhibition of AII vasopressor response [21]: 63%
- Average Change (systolic blood pressure response to AII) [21]: 17.5 mmHg
- % Inhibition of AII vasopressor response [22]: 47%
- Average Change (systolic blood pressure response to AII) [22]: 25 mmHg
- % Inhibition of AII vasopressor response [23]: 37%
- Average Change (systolic blood pressure response to AII) [23]: 30 mmHg
- % Inhibition of AII vasopressor response [24]: 53%
- Average Change (systolic blood pressure response to AII) [24]: 22.5 mmHg
- % Inhibition of AII vasopressor response [25]: 21%
- Average Change (systolic blood pressure response to AII) [25]: 37.5 mmHg
- % Inhibition of AII vasopressor response [26]: 0%
- Average Change (systolic blood pressure response to AII) [26]: 47.5 mmHg

SMILES: CCCCc1nc2ccc(C(OC)C3CCCO3)cc2c(=O)n1Cc1ccc(-c2ccccc2-c2nn[nH]n2)cc1 (single isomer, unassigned) [Example 24]
- % Inhibition of AII vasopressor response [1]: 100%
- Average Change (systolic blood pressure response to AII) [1]: 0 mmHg
- % Inhibition of AII vasopressor response [2]: 93%
- Average Change (systolic blood pressure response to AII) [2]: 2.5 mmHg
- % Inhibition of AII vasopressor response [3]: 93%
- Average Change (systolic blood pressure response to AII) [3]: 2.5 mmHg
- % Inhibition of AII vasopressor response [4]: 87%
- Average Change (systolic blood pressure response to AII) [4]: 5 mmHg
- % Inhibition of AII vasopressor response [5]: 80%
- Average Change (systolic blood pressure response to AII) [5]: 7.5 mmHg
- % Inhibition of AII vasopressor response [6]: 80%
- Average Change (systolic blood pressure response to AII) [6]: 7.5 mmHg
- % Inhibition of AII vasopressor response [7]: 83%
- Average Change (systolic blood pressure response to AII) [7]: 6.5 mmHg
- % Inhibition of AII vasopressor response [8]: 100%
- Average Change (systolic blood pressure response to AII) [8]: 0 mmHg
- % Inhibition of AII vasopressor response [9]: 87%
- Average Change (systolic blood pressure response to AII) [9]: 5 mmHg
- % Inhibition of AII vasopressor response [10]: 87%
- Average Change (systolic blood pressure response to AII) [10]: 5 mmHg
- % Inhibition of AII vasopressor response [11]: 100%
- Average Change (systolic blood pressure response to AII) [11]: 0 mmHg
- % Inhibition of AII vasopressor response [12]: 81%
- Average Change (systolic blood pressure response to AII) [12]: 7.5 mmHg
- % Inhibition of AII vasopressor response [13]: 62%
- Average Change (systolic blood pressure response to AII) [13]: 15 mmHg
- % Inhibition of AII vasopressor response [14]: 59%
- Average Change (systolic blood pressure response to AII) [14]: 16 mmHg
- % Inhibition of AII vasopressor response [15]: 64%
- Average Change (systolic blood pressure response to AII) [15]: 17.5 mmHg
- % Inhibition of AII vasopressor response [16]: 54%
- Average Change (systolic blood pressure response to AII) [16]: 22.5 mmHg
- % Inhibition of AII vasopressor response [17]: 48%
- Average Change (systolic blood pressure response to AII) [17]: 25 mmHg
- % Inhibition of AII vasopressor response [18]: 54%
- Average Change (systolic blood pressure response to AII) [18]: 22.5 mmHg
- % Inhibition of AII vasopressor response [19]: 20%
- Average Change (systolic blood pressure response to AII) [19]: 39 mmHg
- % Inhibition of AII vasopressor response [20]: 12%
- Average Change (systolic blood pressure response to AII) [20]: 42.5 mmHg
- % Inhibition of AII vasopressor response [21]: 57%
- Average Change (systolic blood pressure response to AII) [21]: 22.5 mmHg
- % Inhibition of AII vasopressor response [22]: 38%
- Average Change (systolic blood pressure response to AII) [22]: 32.5 mmHg
- % Inhibition of AII vasopressor response [23]: 33%
- Average Change (systolic blood pressure response to AII) [23]: 35 mmHg
- % Inhibition of AII vasopressor response [24]: 29%
- Average Change (systolic blood pressure response to AII) [24]: 37.5 mmHg
- % Inhibition of AII vasopressor response [25]: 29%
- Average Change (systolic blood pressure response to AII) [25]: 37.5 mmHg
- % Inhibition of AII vasopressor response [26]: 24%
- Average Change (systolic blood pressure response to AII) [26]: 40 mmHg
